Laboratory results: the supplement of paper PMC11208160

Assay: recombinant UMI read abundance after kanamycin selection (control-corrected) (log10(CPM+1)); higher = more efficient recombination; extreme values may be limits of the assay; sequences stand for … in AGTGCAGAGAAAATCGGCCAGTTTTCTCTGCCTGCAGTCCGCATGCCGTGGGACCCCTTGGGTTCTAACCTGTTGCCTAGATTTATGCAGCGGACTGCCTTTCTCCCAAAGTGATAAACCGG…AGGTTGGTTTCACT; site = the 11-nt donor
In short: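 Values, expressed as log10(CPM+1), derive from recombinant UMI counts converted to CPM, averaged across replicates and scaled by control-derived factors. Plating was with IPTG (0.07 mM) plus kanamycin or unselected, two replicates each. The screen pooled donor and donor-binding-loop pairs for the IS621 bridge recombinase in Escherichia coli.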
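Further: IS621 bridge recombinase in Escherichia coli cells against a fixed T5 target plasmid.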

Going from “CGTTCGGCATGGACCGGTTTTCCCGGTAATCCGTATTTGCT (site CGTTTGGCTAG)” to “CGTTGCTCATGGACCGGTTTTCCCGGTAATCCGTATTTGAT (site CGTTGCTCTAT)”, the “recombinant UMI read abundance (log10)” value rises from 0 to 1.8.

Going from “CGTTGTACATGGACCGGTTTTCCCGGTAATCCGTATTTGCT (site CGTTGTACTAG)” to “CGTTTCGCATGGACCGGTTTTCCCGGTAATCCGTATTTGCT (site CGTTTAGCTAG)”, the “recombinant UMI read abundance (log10)” value falls from 1.39 to 0.

First: CGTTTCGCATGGACCGGTTTTCCCGGTAATCCGTATTTGCT (site CGTTTCGCTAG)
Second: CGTTTCGCATGGACCGGTTTTCCCGGTAATCCGTATTTGCT (site CGTTTGGCTAG)
The “recombinant UMI read abundance (log10)” value of the first is higher: 0.892 for the first, 0 for the second.

“CGTTTCGCATGGACCGGTTTTCCCGGTAATCCGTATTTGCT (site CGTTTTGCTAG)” and “CGTTTGACATGGACCGGTTTTCCCGGTAATCCGTATTTGAG (site CGTTAGACTCT)” are within 0.2 log units of each other in “recombinant UMI read abundance (log10)” value: 0 for the first, 0.00643 for the second.

“CGTTTGACATGGACCGGTTTTCCCGGTAATCCGTATTTGAG (site CGTTCGACTCT)” and “CGTTTGACATGGACCGGTTTTCCCGGTAATCCGTATTTGAG (site CGTTGGACTCT)” are within 0.2 log units of each other in “recombinant UMI read abundance (log10)” value: 0 for the first, 0.0522 for the second.

Compared with “CGTTTGACATGGACCGGTTTTCCCGGTAATCCGTATTTGAG (site CGTTTGACTCT)”, “CGTTTGGCATGGACCGGTTTTCCCGGTAATCCGTATTTGCA (site CGTTTGGCTAG)” is lower in “recombinant UMI read abundance (log10)” value: 1.03 for the first, 0 for the second.

“CGTTTGGCATGGACCGGTTTTCCCGGTAATCCGTATTTGCA (site CGTTTGGCTCG)” and “CGTTTGGCATGGACCGGTTTTCCCGGTAATCCGTATTTGCA (site CGTTTGGCTGG)” are within 0.2 log units of each other in “recombinant UMI read abundance (log10)” value: 0.024 for the first, 0 for the second.

First: CGTTTGGCATGGACCGGTTTTCCCGGTAATCCGTATTTGCA (site CGTTTGGCTTG)
Second: CTAACAGCATGGACCGGTTTTCCCGGTAATCCGTATTTGTA (site CTAACAGCTTA)
The “recombinant UMI read abundance (log10)” value of the first is lower: 0.562 for the first, 2.48 for the second.

“CTAACATCATGGACCGGTTTTCCCGGTAATCCGTATTTGCT (site CTAACATCTAG)” and “CTAACTGCATGGACCGGTTTTCCCGGTAATCCGTATTTGTC (site CTAACTGCTGA)” are the same in “recombinant UMI read abundance (log10)” value: 2.12 for the first, 2.12 for the second.

“CTAAGACCATGGACCGGTTTTCCCGGTAATCCGTATTTGCG (site CTAAGACCTCG)” and “CTACAACCATGGACCGGTTTTCCCGGTAATCCGTATTTGAT (site CTACAACCTAT)” are within 0.2 log units of each other in “recombinant UMI read abundance (log10)” value: 0.0114 for the first, 0 for the second.

First: CTACCATCATGGACCGGTTTTCCCGGTAATCCGTATTTGAC (site CTACCATCTGT)
Second: CTACCATCATGGACCGGTTTTCCCGGTAATCCGTATTTGAC (site CTAGTATCTGT)
The “recombinant UMI read abundance (log10)” value of the first is higher: 2.39 for the first, 0 for the second.

“CTACCGCCATGGACCGGTTTTCCCGGTAATCCGTATTTGAC (site CTACCGCCTGT)” and “CTACCGCCATGGACCGGTTTTCCCGGTAATCCGTATTTGCG (site CTACCGCCTCG)” are within 0.2 log units of each other in “recombinant UMI read abundance (log10)” value: 0.322 for the first, 0.268 for the second.

Compared with “CTACGAACATGGACCGGTTTTCCCGGTAATCCGTATTTGGG (site CTACGAACTCC)”, “CTACGCCCATGGACCGGTTTTCCCGGTAATCCGTATTTGTG (site CTACGCCCTCA)” is lower in “recombinant UMI read abundance (log10)” value: 1.11 for the first, 0.232 for the second.

“CTACGTCCATGGACCGGTTTTCCCGGTAATCCGTATTTGAA (site CTACGTCCTTT)” and “CTACTAACATGGACCGGTTTTCCCGGTAATCCGTATTTGCA (site CTACTAACTTA)” are within 0.2 log units of each other in “recombinant UMI read abundance (log10)” value: 1.23 for the first, 1.4 for the second.

Going from “CTACTAACATGGACCGGTTTTCCCGGTAATCCGTATTTGCA (site CTACTAACTTC)” to “CTACTAACATGGACCGGTTTTCCCGGTAATCCGTATTTGCA (site CTACTAACTTG)”, the “recombinant UMI read abundance (log10)” value rises from 0.0167 to 2.47.

Going from “CTACTAACATGGACCGGTTTTCCCGGTAATCCGTATTTGCA (site CTACTAACTTT)” to “CTACTAACATGGACCGGTTTTCCCGGTAATCCGTATTTGGT (site CTACTAACTAC)”, the “recombinant UMI read abundance (log10)” value falls from 1.47 to 0.461.

“CTACTAACATGGACCGGTTTTCCCGGTAATCCGTATTTGGT (site CTACTAACTCC)” and “CTACTAACATGGACCGGTTTTCCCGGTAATCCGTATTTGGT (site CTACTAACTGC)” are within 0.2 log units of each other in “recombinant UMI read abundance (log10)” value: 0.0128 for the first, 0 for the second.

First: CTACTAACATGGACCGGTTTTCCCGGTAATCCGTATTTGGT (site CTACTAACTTC)
Second: CTACTAGCATGGACCGGTTTTCCCGGTAATCCGTATTTGGA (site CTACTAACTTC)
The “recombinant UMI read abundance (log10)” value of the first is lower: 0.0138 for the first, 1.43 for the second.

Going from “CTACTAGCATGGACCGGTTTTCCCGGTAATCCGTATTTGGA (site CTACTACCTTC)” to “CTACTAGCATGGACCGGTTTTCCCGGTAATCCGTATTTGGA (site CTACTAGCTTC)”, the “recombinant UMI read abundance (log10)” value rises from 0.00939 to 1.52.

First: CTACTAGCATGGACCGGTTTTCCCGGTAATCCGTATTTGGA (site CTACTATCTTC)
Second: CTACTGACATGGACCGGTTTTCCCGGTAATCCGTATTTGGA (site CTACTAACTTC)
The “recombinant UMI read abundance (log10)” value of the first is higher: 2.05 for the first, 1.76 for the second.

Compared with “CTACTGACATGGACCGGTTTTCCCGGTAATCCGTATTTGGA (site CTACTCACTTC)”, “CTACTGACATGGACCGGTTTTCCCGGTAATCCGTATTTGGA (site CTACTGACTTC)” is higher in “recombinant UMI read abundance (log10)” value: 0.015 for the first, 0.475 for the second.

Going from “CTACTGACATGGACCGGTTTTCCCGGTAATCCGTATTTGGA (site CTACTTACTTC)” to “CTACTTACATGGACCGGTTTTCCCGGTAATCCGTATTTGGA (site CTACTAACTTC)”, the “recombinant UMI read abundance (log10)” value falls from 0.67 to 0.0935.

“CTACTTACATGGACCGGTTTTCCCGGTAATCCGTATTTGGA (site CTACTCACTTC)” and “CTACTTACATGGACCGGTTTTCCCGGTAATCCGTATTTGGA (site CTACTGACTTC)” are within 0.2 log units of each other in “recombinant UMI read abundance (log10)” value: 0.209 for the first, 0.0111 for the second.

Compared with “CTACTTACATGGACCGGTTTTCCCGGTAATCCGTATTTGGA (site CTACTTACTTC)”, “CTACTTTCATGGACCGGTTTTCCCGGTAATCCGTATTTGAC (site CTACTTTCTGT)” is higher in “recombinant UMI read abundance (log10)” value: 1.32 for the first, 1.94 for the second.

Compared with “CTACTTTCATGGACCGGTTTTCCCGGTAATCCGTATTTGAC (site CTAGTATCTGT)”, “CTAGAATCATGGACCGGTTTTCCCGGTAATCCGTATTTGAC (site CTAGAATCTGT)” is higher in “recombinant UMI read abundance (log10)” value: 0 for the first, 2.83 for the second.

First: CTAGAATCATGGACCGGTTTTCCCGGTAATCCGTATTTGAC (site CTAGCATCTGT)
Second: CTAGAATCATGGACCGGTTTTCCCGGTAATCCGTATTTGAC (site CTAGGATCTGT)
The “recombinant UMI read abundance (log10)” value of the first is lower: 0 for the first, 1.28 for the second.

“CTAGAATCATGGACCGGTTTTCCCGGTAATCCGTATTTGAC (site CTAGTATCTGT)” and “CTAGAGGCATGGACCGGTTTTCCCGGTAATCCGTATTTGTT (site CTAGAGGCTAA)” are within 0.2 log units of each other in “recombinant UMI read abundance (log10)” value: 2 for the first, 1.82 for the second.

First: CTAGCAGCATGGACCGGTTTTCCCGGTAATCCGTATTTGCT (site CAAGCAGCTAG)
Second: CTAGCAGCATGGACCGGTTTTCCCGGTAATCCGTATTTGCT (site CCAGCAGCTAG)
The “recombinant UMI read abundance (log10)” value of the first is higher: 0.38 for the first, 0.129 for the second.

Compared with “CTAGCAGCATGGACCGGTTTTCCCGGTAATCCGTATTTGCT (site CGAGCAGCTAG)”, “CTAGCAGCATGGACCGGTTTTCCCGGTAATCCGTATTTGCT (site CTAGCAGCTAG)” is higher in “recombinant UMI read abundance (log10)” value: 0 for the first, 1.36 for the second.

“CTAGCGCCATGGACCGGTTTTCCCGGTAATCCGTATTTGTG (site CAAGCGCCTCA)” and “CTAGCGCCATGGACCGGTTTTCCCGGTAATCCGTATTTGTG (site CCAGCGCCTCA)” are within 0.2 log units of each other in “recombinant UMI read abundance (log10)” value: 0.0754 for the first, 0.0159 for the second.

Compared with “CTAGCGCCATGGACCGGTTTTCCCGGTAATCCGTATTTGTG (site CGAGCGCCTCA)”, “CTAGCGCCATGGACCGGTTTTCCCGGTAATCCGTATTTGTG (site CTAGCGCCTCA)” is higher in “recombinant UMI read abundance (log10)” value: 0.00935 for the first, 0.446 for the second.

“CTAGGACCATGGACCGGTTTTCCCGGTAATCCGTATTTGGG (site CAAGGACCTCC)” and “CTAGGACCATGGACCGGTTTTCCCGGTAATCCGTATTTGGG (site CCAGGACCTCC)” are within 0.2 log units of each other in “recombinant UMI read abundance (log10)” value: 0.0215 for the first, 0.00872 for the second.

“CTAGGACCATGGACCGGTTTTCCCGGTAATCCGTATTTGGG (site CGAGGACCTCC)” and “CTAGGACCATGGACCGGTTTTCCCGGTAATCCGTATTTGGG (site CTAGGACCTCC)” are within 0.2 log units of each other in “recombinant UMI read abundance (log10)” value: 0 for the first, 0.0095 for the second.

First: CTAGGACCATGGACCGGTTTTCCCGGTAATCCGTATTTGTG (site CTAGGACCTCA)
Second: CTAGGATCATGGACCGGTTTTCCCGGTAATCCGTATTTGAC (site CTAGAATCTGT)
The “recombinant UMI read abundance (log10)” value of the first is lower: 0.00443 for the first, 2.89 for the second.

Going from “CTAGGATCATGGACCGGTTTTCCCGGTAATCCGTATTTGAC (site CTAGCATCTGT)” to “CTAGGATCATGGACCGGTTTTCCCGGTAATCCGTATTTGAC (site CTAGGATCTGT)”, the “recombinant UMI read abundance (log10)” value rises from 1.06 to 1.9.

First: CTAGGATCATGGACCGGTTTTCCCGGTAATCCGTATTTGAC (site CTAGTATCTGT)
Second: CTAGTACCATGGACCGGTTTTCCCGGTAATCCGTATTTGGC (site CTAGTACCTGC)
The “recombinant UMI read abundance (log10)” value of the first is higher: 1.35 for the first, 0 for the second.

Going from “CTAGTACCATGGACCGGTTTTCCCGGTAATCCGTATTTGGC (site CTAGTATCTGT)” to “CTAGTAGCATGGACCGGTTTTCCCGGTAATCCGTATTTGAC (site CTAGTAACTGT)”, the “recombinant UMI read abundance (log10)” value rises from 1.63 to 2.01.

With “CTAGTAGCATGGACCGGTTTTCCCGGTAATCCGTATTTGAC (site CTAGTACCTGT)” the “recombinant UMI read abundance (log10)” value was 0.
